Measured values from US8450308B2 (Vitae Pharmaceuticals, Inc., priority 2008, dated 2013).
Read-outs that look alike come from different tables or passages of the source.

Target: T1, truncated human beta-secretase (residues 1-458, His6-tagged at the C-terminus) (Homo sapiens, UniProt P56817)
T1 construct: truncated human beta-secretase (residues 1-458, His6-tagged at the C-terminus); His6 (C); made in house; host or cells: insect cells D. melanogaster S2 (baculovirus expression system (so in the source))
Assay: BACE fluorescence quench assay
Assay type: biochemical
Description: The assay was performed at room temperature in 96-well white opaque Optiplates aque Optiplates (PerkinElmer, Waltham, Mass.) in a total volume of 200 μl of the incubation mixture containing 50 mM sodium acetate buffer, pH 4.5, 0.4 μM FRET substrate, 2.4 nM enzyme, 5% DMSO, and 0.05% Brij-35. The tested compounds were serially diluted in DMSO and pre-incubated with the substrate. The reaction was started by addition of enzyme, and the progress of the reaction was followed by measuring fluorescence with an excitation wavelength of 480 nm and an emission wavelength of 520 nm. Ten measurements were taken every 5-10 min, and the intensity of fluorescence was regressed against time in order to derive velocities of reaction in all 96 wells. […] IC50 values were calculated by fitting percent inhibition vs. inhibitor concentration into a four-parametric logistic model using XLFit software (IDBS, Guildford, UK).

[1] = in vitro enzyme activity, BACE fluorescence assay, pH 4.5, read-out: IC50

T1 sequence (P56817 22-458): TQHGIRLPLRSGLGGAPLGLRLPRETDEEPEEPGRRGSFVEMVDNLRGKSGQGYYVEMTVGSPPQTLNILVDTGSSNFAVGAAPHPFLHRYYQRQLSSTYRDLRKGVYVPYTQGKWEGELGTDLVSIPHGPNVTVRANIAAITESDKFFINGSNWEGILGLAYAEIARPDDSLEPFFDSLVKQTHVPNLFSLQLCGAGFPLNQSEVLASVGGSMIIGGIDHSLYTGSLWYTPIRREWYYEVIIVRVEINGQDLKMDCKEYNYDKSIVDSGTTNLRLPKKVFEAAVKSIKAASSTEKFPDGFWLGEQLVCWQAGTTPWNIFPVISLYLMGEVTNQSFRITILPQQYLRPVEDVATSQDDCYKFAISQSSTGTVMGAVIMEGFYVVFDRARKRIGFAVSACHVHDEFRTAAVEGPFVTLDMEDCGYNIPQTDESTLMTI

| Structure (SMILES) | IC50 [1] [µM] | IC50 [µM] |
| --- | --- | --- |
| CN1C(=O)C2(CC(c3ccccc3)Oc3ccc(-c4ccc(S(C)(=O)=O)cc4)cc32)N=C1N (centres unmarked) [Compound 49, 2′-amino-1′-methyl-6-(4-(methylsulfonyl)phenyl)-2-phenylspir-o[chroman-4,4′-imidazol]-5′(1′H)-one] | – | 5 to 10 |
| CN1C(=O)C2(CC(c3ccccc3F)Oc3ccc(-c4cccc(C#N)c4)cc32)N=C1N (centres unmarked) [Compound 9, 3-(2′-amino-2-(2-fluorophenyl)-1′-methyl-5′-oxo-1′,5′-dihydrospiro[chroman-4,4′-imidazole]-6-yl)benzonitrile] | 0.1 to 0.5 | – |
| CC(C)=CC(CCO)[C@H]1C[C@@]2(N=C(N)N(C)O2)c2cc(-c3cc(F)cc(F)c3)ccc2O1 (some centres unmarked) [Compound 421] | 1 to 5 | – |
| CN1C(=O)C2(CC(c3ccccc3)Oc3ccc(-c4ccc(S(=O)(=O)N(C)C)cc4)cc32)N=C1N (centres unmarked) [Compound 65, 4-(2′-amino-1′-methyl-5′-oxo-2-phenyl-1′,5′-dihydrospiro[chroman-4,4′-imidazole]-6-yl)-N,N-dimethylbenzenesulfonamide] | – | 10 to 50 |
| CCOc1cccc(-c2ccc3c(c2)C2(CC4(CCCOC4)O3)N=C(N)N(C)O2)c1 (centres unmarked) [Compound 124] | 5 to 10 | – |
| CCOC(=O)c1cccc(-c2ccc3c(c2)[C@]2(C[C@]4(CCCOC4)O3)N=C(N)N(C)C2=O)c1 [Compound 386] | 1 to 5 | – |
| CCCCNC(=O)c1cccc(-c2ccc3c(c2)[C@]2(C[C@@H](c4ccccc4)O3)N=C(N)N(C)C2=O)c1 [Compound 55b, 3-((2S,4S)-2′-amino-1′-methyl-5′-oxo-2-phenyl-1′,5′-dihydrospiro[chroman-4,4′-imidazole]-6-yl)-N-butylbenzamide] | 10 to 50 | – |
| CNS(=O)(=O)c1cccc(-c2ccc3c(c2)C2(CC(c4ccccc4)O3)N=C(N)N(C)C2=O)c1 (centres unmarked) [Compound 48, 3-(2′-amino-1′-methyl-5′-oxo-2-phenyl-1′,5′-dihydrospiro[chroman-4,4′-imidazole]-6-yl)-N-methylbenzenesulfonamide] | – | 5 to 10 |
| CN1C(=O)[C@@]2(C[C@@]3(CCCOC3)Oc3ccc(-c4cc(C#N)ccc4C(F)(F)F)cc32)N=C1N [Compound 449] | 10 to 50 | – |
| CN1C(=O)C2(CC(c3ccccc3)Oc3ccc(-c4cccc(C(=O)NCCC#N)c4)cc32)N=C1N (centres unmarked) [Compound 47, 3-(2′-amino-1′-methyl-5′-oxo-2-phenyl-1′,5′-dihydrospiro[chroman-4,4′-imidazole]-6-yl)-N-(2-cyanoethyl)benzamide] | – | 5 to 10 |
| CN1C(=O)C2(CC(c3ccc(C(F)(F)F)cc3)Oc3ccc(-c4cccc(C#N)c4)cc32)N=C1N (centres unmarked) [Compound 16] | 0.5 to 1 | – |
| CN1OC2(CC3(CCOC(C)(C)C3)Oc3ccc(-c4cccc(C#N)c4)cc32)N=C1N (centres unmarked) [Compound 396] | 1 to 5 | – |
| Cc1ccc(C#N)cc1-c1ccc2c(c1)C1(CC(C3CCOC(C)(C)C3)O2)N=C(N)N(C)O1 (centres unmarked) [Compound 292] | 0.1 to 0.5 | – |
| CN1O[C@]2(C[C@]3(CCCc4ccccc43)Oc3ccc(-c4cccc(C#N)c4)cc32)N=C1N [Compound 374] | 1 to 5 | – |

Continued, in another order:

| IC50 [1] [µM] | Structure (SMILES) | IC50 [µM] |
| --- | --- | --- |
| 0.1 to 0.5 | COc1ccc(OC)c(-c2ccc3c(c2)[C@]2(C[C@@]4(CCCOC4)O3)N=C(N)N(C)C2=O)c1 [Compound 321] | – |
| 0.5 to 1 | CN1OC2(CC(C3CCOCC3)Oc3ccc(-c4cc(Cl)cc(C#N)c4)cc32)N=C1N (centres unmarked) [Compound 350] | – |
| 1 to 5 | CN1C(=O)[C@@]2(C[C@]3(CCCOC3)Oc3ccc(-c4ccco4)cc32)N=C1N [Compound 411] | – |
| 1 to 5 | CN1OC2(CC(c3cccnc3)Oc3ccc(-c4cccc(C#N)c4)cc32)N=C1N (centres unmarked) [Compound 95, 3-(3′-amino-2′-methyl-2-(pyridine-3-yl)-2′H-spiro[chroman-4,5′-[1,2,4]-oxadiazole]-6-yl)benzonitrile] | – |
| 1 to 5 | CN1C(=O)C2(CC3(CCCCC3)Oc3ccc(-c4cccnc4)cc32)N=C1N (centres unmarked) [Compound 80] | – |
| 0.1 to 0.5 | COc1cccc(-c2ccc3c(c2)C2(CC(C4CCCOC4)O3)N=C(N)N(C)O2)c1F (centres unmarked) [Compound 92] | – |
